These results are taken from US6531464B1, “Methods for the treatment of neurodegenerative disorders using substituted phenanthridinone derivatives” (Inotek Pharmaceutical Corporation, priority 1999, dated 2003).

In series [1] the test system is streptozotocin diabetic mice. Description: Streptozotocin induced diabetes: vascular function, glucose, insulin, immunostaining. The series is classed as in vivo, mouse. The protocol: Male Balb/c mice were treated intraperitoneally (i.p.) with streptozotocin (240 mg/kg dissolved in citrate buffer) or vehicle (citrate buffer). Blood glucose was then monitored weekly over 8 weeks using a one-touch blood glucose meter (Lifescan). Hyperglycemia was defined as non-fasting blood glucose level higher than 200 mg/dL. Total glycated hemoglobin (GHb) content of blood samples was measured using a commercially available kit (Sigma Diagnostics) according to manufacturers instructions. […] The optical density of the two fractions was measured by spectrophotometry at 415 nm and the per cent glycated hemoglobin content was calculated as follows: GHb (%)=[…]/(E+[…]). Samples of pancreas were removed on week 8 and weighed before being placed into 6 ml of acid ethanol (23:7:0.45, ethanol:dH2O:HCl) and homogenized. The pancreas was incubated for 72 h at 4° C. before being centrifuged. The insulin content of the supernatant was then determined using a commercially available ELISA kit (Alpco). […] At 8 weeks, blood was taken for measurement of glycosylated hemoglobin levels, pancreata taken for measurements of pancreatic insulin content, and thoracic aortae taken for determination of endothelium-dependent relaxant reactivity. There was no difference in the degree of hyperglycemia and glycosylated hemoglobin, and in the degree of pancreatic insulin loss between vehicle and PJ34 treated diabetic animals. […] Sections were treated with 0.3% hydrogen peroxide for 15 min to block endogenous peroxidase activity and then rinsed briefly in PBS. Non-specific binding was blocked by incubating the slides for 1 h in PBS containing 2% horse serum. To detect poly(ADP-ribose), a routine histochemical procedure was applied, as previously described (Scott et al., Ann. Neurol. 45: 120-124, 1999) with minor modifications, as follows: Mouse monoclonal anti-poly(ADP-ribose) antibody (Alexis, San Diego, Calif.) and isotype-matched control antibody were applied in a dilution of 1:100 for 2 h at room temperature. Following extensive washing (5×5 min) with PBS, immunoreactivity was detected with a biotinylated goat anti-rabbit secondary antibody and the avidin-biotin-peroxidase complex (ABC), both supplied in the Vector Elite kit (Vector Laboratories, Burlingame, Calif.). Color was developed using Ni-DAB substrate (95 mg diaminobenzidine, 1.6 g NaCl, 2 g nickel sulfate in 200 ml 0.1 M acetate buffer). Sections were then counterstained with nuclear fast red, dehydrated and mounted in Permount. Photomicrographs were taken with a Zeiss Axiolab microscope equipped with a Fuji HC-300C digital camera. Detection of nitrotyrosine in aorta rings was carried out as described above for poly(ADP-ribose) staining except that rabbit anti-nitrotyrosine polyclonal antibody was used as the primary antibody. […] Cells were rehydrated in PBS, blocked in 2% goat serum (1 h, room temperature) and incubated in anti-nitrotyrosine (1:100 dilution) for 2 h. Subsequent steps of the staining procedure were identical to the tissue staining. Color was developed with Vector Red substrate, and slides were mounted in glycerol.

Series [2] relates to mouse. Description: Ischemic and reperfused gut (superior mesenteric artery occlusion). As to conditions: gut ischemia-reperfusion; 38% mortality without treatment.
Description: In another model, a mouse model of ischemic and reperfused gut was utilized.
In series [3] the test system is nitric oxide (nitrite). Briefly: LPS-stimulated J774 macrophages: nitric oxide production measured as nitrite. The class given is cell-based. An excerpt:
(§1) In in vitro studies, J774 macrophages were exposed to bacterial lipopolysaccharide (LPS), to induce pro-inflammatory mediator production and cytotoxicity. […] This assay (the LPS-stimulated macrophage) represents an in vitro model of an inflammatory situation. Agents that block inflammatory mediator production in this assay are expected to have anti-inflammatory or immunosuppressive effects in inflammatory or immune diseases.
(§2) The half-maximal inhibitory effect (in μM) of various PJ compounds was assessed under a variety of conditions in immunostimulated J774 macrophages and in peroxynitrite-stimulated thymocytes. Macrophages or thymocytes were first treated with a chosen PJ compound for 30 min at a concentration ranging from 0.1 to 30 μM. The cells were then immunostimulated with LPS (10 μg/ml) or treated with peroxynitrite (30 μM). MIP production in the macrophages was measured at 3 h, TNF and nitric oxide were measured at 24 h, cell viability in the macrophages were measured at 24 h. PARS activation and cell death in thymocytes were measured at 6 h. Measurements of mediator production, PARS activation and cell death were essentially as described in Németh, et al., Eur J Pharmacol 339:215-221, 1997 and Virág and Szabó, Br J Pharmacol, 126: 769-777, 1999. Results in Table 2 are shown as EC50 values (half maximal inhibition of mediator production or restoration of cell viability; in μM): [mean±SEM of n=3-6 determinations].

Series [4] relates to Balb/c mice. Briefly: LPS-induced mortality (systemic inflammatory model). Particulars: LPS 90 mg/kg intraperitoneally; pretreatment 20 mg/kg; over 24 h; 92% death without treatment.
Description: In order to substantiate the efficacy of the PJ series of compounds in inflammatory conditions, the effect of compounds according to the invention were tested in a systemic inflammatory model induced by bacterial lipopolysaccharide.
The subject of series [5] is cultured neurons. Particulars: oxygen/glucose deprivation; concentration range 10 nM-1 μM.
Description: A second experimental system was used where oxygen/glucose deprivation induced cell death in cultured neurons (i.e. an in vitro model of stroke).
Series [6] has as its system TNF-α. Briefly: LPS-stimulated J774 macrophages: TNF-α production. The series is classed as cell-based.
Description: as §1, §2

Series [7] deals with J774 macrophages. Briefly: LPS-stimulated J774 macrophages: cell viability. The series is classed as cell-based.
Description: as §1, §2

Series [8] relates to rat. Description: Middle cerebral artery occlusion/reperfusion.
Description: Occlusion lasted for 2 hours, followed by reperfusion for 24 hours. Infarct size was quantified with tetrazolium staining, and survival and neurological scores were monitored.
Series [9] concerns thoracic aortic rings from wild-type mice. Briefly: High glucose induced endothelial dysfunction in isolated thoracic aortic rings. On the set-up: species or system mouse. Particulars: 30 mM glucose 16 hours; co-incubation with PJ34 1 μM. Here is the method:
Breeding pairs of mice for the PARS colony were a gift from Dr. Z. Q. Wang, International Agency for Research on Cancer Lyon, France. Thoracic aortae from PARS^−/− and PARS^+/+ mice (Wang et al., Genes Dev.9: 509-520, 1995) were harvested, cleared of periadvential fat, and cut into 3 or 4 pieces. […] Four different media preparations were used: a) normal glucose, i.e. 5 mM: in F-12K Nutrient Mixture medium (Gibco BRL—Life Technologies); b) Osmotic control, i.e. 30 mM L-glucose in F-12K medium; c) High glucose i.e. 30 mM D-glucose in F-12K medium; […].
After incubation, aortic rings were mounted in organ baths filled with warmed and gas equilibrated Krebs' solution and endothelium dependent relaxant ability was evaluated as described above.

Series [10] concerns MIP-1α. Briefly: LPS-stimulated J774 macrophages: MIP-1α production. The series is classed as cell-based.
Description: as §1, §2

[11] abbreviates: 10 mg/kg per os once a day from week 1, at 8 weeks.
[12] abbreviates: J774 macrophages exposed to LPS.

For the compound `CN(C)CC(=O)Nc1ccc2[nH]c(=O)c3ccccc3c2c1` [PJ34, N-(6-oxo-5,6-dihydro-phenanthridin-2-yl)-N,N-dimethylacetamide], in series [1] (10 mg/kg per os once a day from week 1, 0-8 weeks), the “degree of hyperglycemia (blood glucose) vs vehicle” value is given as “no difference”. In addition, the “degree of pancreatic insulin loss vs vehicle” value in series [1] (setting [11]) is reported as “no difference”. Besides, the “glycosylated hemoglobin vs vehicle” value in [1] (setting [11]) is reported as “no difference”. The “PARS activation (poly(ADP-ribose) staining) in diabetic endothelium” value in [1] (8 weeks) was “abolished”. In addition, the “tyrosine nitration (nitrotyrosine immunostaining) in diabetic rings” value in series [1] (8 weeks) is “not affected”. Further, the “vascular reactivity of normal (non-diabetic) mice” value in series [1] (chronic treatment 8 weeks, same regimen, not shown) is recorded as “did not affect”. For the same compound, in [1] (diabetic animals at 8 weeks, 10 mg/kg per os daily, P<0.01 vs vehicle), the “acetylcholine induced endothelium-dependent relaxant ability of thoracic aortic rings” value is “normalized”. Besides, the survival in series [2] turned out to be 100%. The “production of nitric oxide, measured as nitrite (in words)” value in [3] (setting [12]) is reported as “inhibited”. Also, the EC50 amounted to 15.2 ± 2.8 µM in series [3] (Mus musculus, J774, LPS 10 μg/ml, 30 min pretreatment 0.1 to 30 μM, measured at 24 h, mean±SEM n=3-6, read-out: Inhibition of Nitrite (J774)); 5.4 ± 0.6 µM in series [6] (Mus musculus, J774, LPS 10 μg/ml, 30 min pretreatment 0.1 to 30 μM, measured at 24 h, mean±SEM n=3-6, read-out: Inhibition of TNF-α (J774)); 12.5 ± 1.4 µM in series [7] (Mus musculus, J774, LPS 10 μg/ml, 30 min pretreatment 0.1 to 30 μM, measured at 24 h, mean±SEM n=3-6, read-out: Enhancement of cell Viability (J774)); 10.2 ± 1.4 µM in series [10] (Mus musculus, J774, LPS 10 μg/ml, 30 min pretreatment 0.1 to 30 μM, measured at 3 h, mean±SEM n=3-6, read-out: Inhibition of MIP-1α (J774)). Moreover, the endotoxin-induced mortality in series [4] worked out at 50%. In addition, the cytoprotection entry in [5] is given as “up to 70%”. Further, in [6] (setting [12]), the “production of the pro-inflammatory cytokine TNF-α (in words)” value is “inhibited”. Further, the “viability of the cells suppressed by LPS exposure (in words)” value in series [7] (setting [12]) is on record as “restored the viability”. Also, the “reduction of the size of brain infarction” value in series [8] (10 mg/kg i.v. at 2 h after the start of reperfusion) came to 55±8%; in series [8] (10 mg/kg i.v. at the time of reperfusion (5 min before start)) it was 74±6%. Besides, the “mortality over 24 hours (in words)” value in series [8] (2 hours occlusion, 24 hours reperfusion, 10 mg/kg i.v., 73% mortality in control or vehicle) is given as “no animals died”. Moreover, the “neurological deficit (scale of 1-4)” value in [8] (24 h, vehicle survivors scored 4) is on record as “no detectable deficit”. Further, the “impairment in endothelium-dependent relaxation by high glucose” value in [9] is “prevented”. Moreover, the “production of the chemokine MIP-1α (in words)” value in [10] (setting [12]) is “inhibited”.
